# Assay results as given in US20080152765A1, “Coated Granular Formulations” (priority 2005, published 2008).
# Several values for one entry are separate records, joined by “and”; a condition that tells them apart may be missing. Equal values may be shown once.
# Assays:
# Assay type in all cases: physicochemical
# [1] = Hygroscopicity and photosensitivity of starting material NADH, exposure to light, RH 75%, 20° C.; conditions: for weight (increase in weight relative to time zero): T = 0 2.00 g
# Protocol: The hygroscopicity and photosensitivity of the starting material NADH (s.m.) was determined as increase in weight, relative to time zero, the relative content being given in p.a.: […]
# [2] = Stability of the protected NADH product relative to the starting material, 5 days at 53° C.
# [3] = Hygroscopicity of starting material SAMe, exposure at 75% RH and 20° C.; conditions: for weight (increase in weight relative to time zero): T = 0 2.00 g
# Protocol: The hygroscopicity of the starting material SAMe (s.m.) was determined as increase in weight, relative to the time zero, the relative content being given in p.a.: […]
# [4] = Stability of the protected SAMe product relative to the starting material, 5 days at 53° C.
# [5] = Increase of hygroscopicity in % by weight, SAMe, 75% RH 40° C.
# [6] = 1 day exposure to light, RH 75%, 20° C.
# [7] = 2 days exposure to light, RH 75%, 20° C.
# [8] = 3 days exposure to light, RH 75%, 20° C.
# [9] = 4 days exposure to light, RH 75%, 20° C.
# [10] = 5 days at 53° C., listed as s.m.
smiles,measurement,setting,value
NC(=O)C1=CN([C@@H]2O[C@H](COP(=O)(O)OP(=O)(O)OC[C@H]3O[C@@H](n4cnc5c(N)ncnc54)[C@H](O)[C@@H]3O)[C@@H](O)[C@H]2O)C=CC1 [NADH],NAD+ impurity,[1]; [6],1.21%
same,NADH content,[1]; [6],97.9%
same,Water (KF),[1]; [6],1.82%
same,weight (increase in weight relative to time zero),[1]; [6],2.20 g
same,NAD+ impurity,[1]; [7],1.55%
same,NADH content,[1]; [7],97.3%
same,Water (KF),[1]; [7],1.91%
same,weight (increase in weight relative to time zero),[1]; [7],2.40 g
same,NAD+ impurity,[1]; [8],2.89%
same,NADH content,[1]; [8],96.0%
same,Water (KF),[1]; [8],2.44%
same,weight (increase in weight relative to time zero),[1]; [8],2.50 g
same,NAD+ impurity,[1]; [9],3.45%
same,NADH content,[1]; [9],95.5%
same,Water (KF),[1]; [9],2.86%
same,weight (increase in weight relative to time zero),[1]; [9],2.80 g
same,NAD+ impurity,[1]; T = 0,0.55%
same,NADH content,[1]; T = 0,98.4%
same,Water (KF),[1]; T = 0,1.2%
same,% NAD+ content,[2]; 5 days at 53° C.,2.3%
same,% NADH content,[2]; 5 days at 53° C.,98.4%
same,% water (KF),[2]; 5 days at 53° C.,1.5%
same,% NAD+ content,[2]; T = 0,0.5%
same,% NADH content,[2]; T = 0,100.1%
same,% water (KF),[2]; T = 0,1.3%
"C[S+](CC[C@H](N)C(=O)O)C[C@H]1O[C@@H](n2cnc3c(N)ncnc32)[C@H](O)[C@@H]1O (stereo partly shown) [SAMe, S-adenosylmethionine]","hygroscopicity and stability, in words","[3]; 75% RH and 20° C., 4 days",high hygroscopicity and high instability
same,% MTA,[3]; 1 day at 75% RH and 20° C.,1.5%
same,% adenine + adenosine,[3]; 1 day at 75% RH and 20° C.,1.3%
same,% ionic SAMe,[3]; 1 day at 75% RH and 20° C.,51.1%
same,% water (KF),[3]; 1 day at 75% RH and 20° C.,2.1%
same,weight (increase in weight relative to time zero),[3]; 1 day at 75% RH and 20° C.,2.40 g
same,% MTA,[3]; 2 days at 75% RH and 20° C.,1.9%
same,% adenine + adenosine,[3]; 2 days at 75% RH and 20° C.,2.4%
same,% ionic SAMe,[3]; 2 days at 75% RH and 20° C.,50.3%
same,% water (KF),[3]; 2 days at 75% RH and 20° C.,2.9%
same,weight (increase in weight relative to time zero),[3]; 2 days at 75% RH and 20° C.,2.90 g
same,% MTA,[3]; 3 days at 75% RH and 20° C.,2.4%
same,% adenine + adenosine,[3]; 3 days at 75% RH and 20° C.,2.9%
same,% ionic SAMe,[3]; 3 days at 75% RH and 20° C.,47.3%
same,% water (KF),[3]; 3 days at 75% RH and 20° C.,3.4%
same,weight (increase in weight relative to time zero),[3]; 3 days at 75% RH and 20° C.,3.50 g
same,% MTA,[3]; 4 days at 75% RH and 20° C.,3.0%
same,% adenine + adenosine,[3]; 4 days at 75% RH and 20° C.,3.2%
same,% ionic SAMe,[3]; 4 days at 75% RH and 20° C.,45.1%
same,% water (KF),[3]; 4 days at 75% RH and 20° C.,3.8%
same,weight (increase in weight relative to time zero),[3]; 4 days at 75% RH and 20° C.,4.50 g
same,% MTA,[3]; T(0),T(0) = 0.6%
same,% adenine + adenosine,[3]; T(0),T(0) = 0.4%
same,% ionic SAMe,[3]; T(0),T(0) = 52.1%
same,% water (KF),[3]; T(0),T(0) = 1.5%
same,% water (KF),[4]; 5 days at 53° C.,1.5%
same,% Ionic SAMe content,[4]; [10],48.5% and 47.3%
same,% MTA,[4]; [10],3.45% and 3.87%
same,% adenine + adenosine,[4]; [10],3.35% and 3.54%
same,% Ionic SAMe content,"[4]; T = 0, listed as s.m",52.4%
same,% MTA,"[4]; T = 0, listed as s.m",0.3%
same,% adenine + adenosine,"[4]; T = 0, listed as s.m",0.6%
same,% water (KF),"[4]; T = 0, listed as s.m",1.6%
same,% Ionic SAMe content,"[4]; T = 0, listed as s.m.",52.1%
same,% MTA,"[4]; T = 0, listed as s.m.",0.6%
same,% adenine + adenosine,"[4]; T = 0, listed as s.m.",0.4%
same,% water (KF),"[4]; T = 0, listed as s.m.",1.5%
same,Increase of hygroscopicity in % by weight,[5]; 1 day at 75% RH and 40° C.,50%
same,Increase of hygroscopicity in % by weight,[5]; T = 0,0.00 % by weight
